Measurements published in US10301277B2, “Substituted ureas and methods of treating mental illness using the same” (ZHEJIANG JINGXIN PHARMACEUTICAL CO., LTD., priority 2016, dated 2019).
Where two headings read alike, the source gives them in different places.

What was measured:
[1] = Acute toxicity assay, single oral administration; details: ICR, mouse, in vivo
Method: Acute Toxicity Assay of the Cyclohexane Derivatives of the Present Invention
ICR mice orally administered with the compounds of the present invention were evaluated and their toxicity symptoms after oral administration were observed, as well as the mortality, which was calculated by Bliss method, thus the acute toxicities were compared.
• i. Preparation of solvent: Tween-80 of an appropriate amount was diluted with deionized water to a concentration of […] (g/v) Tween-80. • ii. […]. Administration: the test compound and solvent medium control groups (0.5% Tween-80) were administered orally.
Observations include but are not limited to: general condition, behavior, gait, eyes, mouth, nose, gastrointestinal tract, skin and hair and urogenital tract.

[2] = test system: MK-801-induced schizophrenia model; experiment: MK-801-induced schizophrenia model, open field running behavior; assay type: in vivo, Sprague-Dawley rats; details: for inhibition of high spontaneous activity of MK-801-induced rats: dose of 0.3 mg/kg, compared with MK-801 model control; for Total Distance within 61-150 minutes / Improvement Rate: single oral administration 0.3 mg/kg; for Total Distance within 61-150 minutes: MK-801 0.3 mg/kg i.p., x ± SD; for Improvement Rate: versus MK-801 model control
Method: (I) Modeling of MK-801-Induced Schizophrenia in Mice
Each rat was placed in a soundproof box for 30 minutes on the day before the test to adapt. On the next day, each rat was administrated with the respective test compounds, and after 30 minutes, administrated intraperitoneally with a 0.3 mg/kg MK-801 solution at 5.0 mL/kg body weight of the rat to build a model of MK-801-induced schizophrenia in mice.
(II) Observation of Open Field Running Behavior
Mice were administered with MK-801 and then immediately placed in the soundproof box. The total distances of motion of mice within 2.5 hours were observed and recorded. Improvement rate=(total distance of model control−total distance of administration)/(total distance of model control)×100%. (III) Statistical Method
All the data was expressed with x±SD and processed by SPSS17.0 software statistical package. T-test and one-way analysis of variance were performed to compare the mean of two samples, with P<0.05 as significant difference.

Dopamine D2 receptor = biological target: T1, Dopamine D2 receptor (Homo sapiens, UniProt P14416); experiment: Dopamine D2 receptor binding assay; details: [3H] Spiperone, HEK293 cells expressing D2 receptor
T1 construct: expressed in transfected cells
Method: (§1) This test was carried out according to the dopamine D2/D3 receptor binding assay and the 5-HT1A receptor binding assay described in Jiangsu Hengyi Pharmaceutical Co., Ltd.'s Patent CN 103130737 A. IC50 values were calculated from concentration-dependent reactions using a non-linear analysis program. Ki values were calculated from IC50 values by using Cheng-Prussoff equation, i.e. Ki=IC50/(1+[L]/KD), wherein Ki is the affinity of the drug to the receptor; […]; and KD is the affinity of radioligand to the receptor.
(I) Dopamine D2 Receptor Binding Assay
• a. Transfection of D2 Receptor Cells: by using calcium phosphate method, HEK293 cells were transfected with a plasmid vector containing the D2 receptor protein gene. The transfected cells were cultured in a culture solution containing G418, followed by a selection of monoclonal cell and radioligand binding assay, finally obtaining a stable cell line with stable expression of D2 receptor protein. • b. Materials for receptor binding assay: isotope ligand [^3H] Spiperone (113.0 Ci/mmol); available from Sigma-Aldrich Company; (+) spiperone, available from RBI company; GF/B glass fiber filter paper, available from Whatman Company; Tris imported and packaged; PPO, POPOP, available from Shanghai Reagent Chemical Company; lipid-soluble scintillation solution; and Beckman LS-6500 Multi-function Liquid Scintillation Counter. ii. Test Method • a. Treatment of cells: HEK-293 cells were infected with various recombinant viruses of the above genes, respectively, and the receptor proteins were highly expressed on the membranes after 48-72 hours. The cells were centrifuged at 1000 rpm for 5 minutes. The culture solution was discarded, and the cells were collected and stored in a refrigerator at −20° C. for standby. The cells were resuspended with Tris-HCl buffer (pH=7.5) when tested. • b. Competitive binding assay for receptor
The compound to be tested and the radio ligand, both 20 μL, and 160 μL of receptor proteins were added to the reaction test tubes to achieve a final concentration of 10 μmol/L for each of the compound to be tested and positive control, incubated in a water bath of 30° C. for 50 minutes and immediately transferred to an ice bath to terminate the reaction; placed on a Millipore cell sample collector, filtered by suction rapidly through a […] glass fiber filter, and eluted with 3 mL of eluent (50 mM Tris-HCl, pH7.5) for three times and dried with microwave for 5-6 minutes. The filter paper was transferred into a 0.5 mL centrifuge tube to which 500 μL of lipid-soluble scintillation solution was added, and settled away from light for more than 30 minutes. The radioactive intensity was determined by counting. The concentration of the compound was 10 μmol/L, and inhibition rate (%) of each compound to the binding of isotope ligands was calculated according to the following equation: Inhibition rate (I%)=(total binding tube cpm−compound cpm)/(total binding tube cpm—non-specific binding tube cpm)×100%. (II) Dopamine D3 Receptor Binding Assay

Dopamine D3 receptor = Dopamine D3 receptor (Homo sapiens, UniProt P35462); experiment: Dopamine D3 receptor binding assay
Method: as §1
The concentration of the compound was 10 μmol/L, and the assay was performed according to the method described in Journal of Pharmacology and Experimental Therapeutics 2010, 333 (1): 328.

5-HT1A receptor = biological target: T2, 5-HT1A receptor (Homo sapiens, UniProt P08908); experiment: 5-HT1A receptor binding assay; details: [3H] 8-OH-DPAT, HEK-293 cells expressing 5-HT1A receptor
T2 construct: expressed in transfected cells
T2 sequence (P08908 1-422): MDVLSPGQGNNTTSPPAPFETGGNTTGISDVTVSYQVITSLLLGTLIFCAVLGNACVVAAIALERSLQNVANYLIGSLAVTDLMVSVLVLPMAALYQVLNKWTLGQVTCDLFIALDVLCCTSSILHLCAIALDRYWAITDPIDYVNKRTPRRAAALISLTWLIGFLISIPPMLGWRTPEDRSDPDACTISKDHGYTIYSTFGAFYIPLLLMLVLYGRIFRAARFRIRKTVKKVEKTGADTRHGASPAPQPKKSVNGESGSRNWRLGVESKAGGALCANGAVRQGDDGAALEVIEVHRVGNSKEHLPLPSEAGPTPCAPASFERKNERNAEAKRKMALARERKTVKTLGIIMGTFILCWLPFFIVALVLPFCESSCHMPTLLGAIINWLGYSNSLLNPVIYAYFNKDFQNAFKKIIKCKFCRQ
Method: as §1
(III) 5-HT1A Receptor Binding Assay
5-HT1A receptor isotope ligand [^3H] 8-OH-DPAT (available from PE Company); (+)5-hydroxytrptamine (available from Sigma Company); GF/B glass fiber filter paper (available from Whatman Company); lipid-soluble scintillation solution: PPO, POPOP (available from Shanghai Chemical Reagent Company); toluene (from Sinopharm Chemical Reagent Co., Ltd.); Tris imported and packaged.
Treatment of cells: HEK-293 cells which stably express the 5-HT1A receptor by gene recombination were cultured in DMEM+10% serum solution for 3-5 days and then collected with PBS. The cells were centrifuged at 3000 rpm and […] for 10 minutes. Afterwards, the supernate was discarded, and the cells were collected and stored in a refrigerator at −80° C. The cells were resuspended with D1 Binding Buffer (pH 7.4) when tested.
Inhibition rate of each compound of 10 umol/L to the binding of [^3H]8-OH-DPAT and the 5-HT1A receptor was determined by a general selection.

[3] = single oral administration, Bliss method, read-out: LD50

T1 sequence (P14416 whole entry, species assumed): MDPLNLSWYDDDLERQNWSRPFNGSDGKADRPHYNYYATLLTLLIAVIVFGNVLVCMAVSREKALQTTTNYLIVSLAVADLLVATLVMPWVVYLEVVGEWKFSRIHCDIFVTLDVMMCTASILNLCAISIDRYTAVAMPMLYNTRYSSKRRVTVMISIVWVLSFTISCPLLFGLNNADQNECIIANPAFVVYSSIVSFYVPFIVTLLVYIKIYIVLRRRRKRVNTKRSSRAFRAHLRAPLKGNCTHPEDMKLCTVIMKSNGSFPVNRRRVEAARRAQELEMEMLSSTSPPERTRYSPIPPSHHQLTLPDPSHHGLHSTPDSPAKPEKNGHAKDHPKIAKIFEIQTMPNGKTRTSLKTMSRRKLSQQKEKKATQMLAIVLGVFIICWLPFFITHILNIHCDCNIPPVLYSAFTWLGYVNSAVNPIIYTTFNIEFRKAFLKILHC
Sequence of Dopamine D3 receptor (P35462 whole entry, species assumed): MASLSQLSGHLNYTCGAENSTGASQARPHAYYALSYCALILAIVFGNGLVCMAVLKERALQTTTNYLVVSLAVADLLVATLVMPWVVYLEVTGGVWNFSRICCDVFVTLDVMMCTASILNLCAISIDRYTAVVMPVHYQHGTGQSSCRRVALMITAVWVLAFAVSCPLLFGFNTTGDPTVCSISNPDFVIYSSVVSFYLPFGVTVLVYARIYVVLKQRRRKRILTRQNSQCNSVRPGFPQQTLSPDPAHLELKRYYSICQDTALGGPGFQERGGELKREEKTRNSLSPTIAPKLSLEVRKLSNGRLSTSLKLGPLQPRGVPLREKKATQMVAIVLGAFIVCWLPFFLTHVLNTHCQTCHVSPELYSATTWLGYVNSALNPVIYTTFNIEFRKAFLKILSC

Row | Compound | inhibition of high spontaneous activity of MK-801-induced rats [2] | Total Distance within 61-150 minutes [2] | Improvement Rate [2] | Ki (Dopamine D2 receptor) | Ki (Dopamine D3 receptor) | Ki (5-HT1A receptor) | other results
1 | CN(C)C(=O)N[C@H]1CC[C@H](CCN2CCN(c3cccc4sccc34)CC2)CC1 [drawing 37] | – | – | – | – | – | – | LD50 at 6 days [1, 3]: 1080 mg/kg
2 | CN(C)C(=O)N[C@H]1CC[C@H](CCN2CCN(c3cccc(Cl)c3Cl)CC2)CC1 [Cariprazine, reference compound] | significantly inhibited | 168.25 ± 26.9 m | 45.69% | – | – | – | total distances of the rats within 150 minutes compared with MK-801 model control ([2]; 0.3 mg/kg): decreased; LD50 at 6 days ([1]; po): 75.3 mg/kg
3 | Cc1ccc2c(N3CCN(CC[C@H]4CC[C@H](NC(=O)N(C)C)CC4)CC3)noc2c1 [Compound 14, N′-[trans-4-[2-[4-(6-methyl-benzo[d]isoxazol)-4-piperazinyl]ethyl]cyclohexyl]-N,N-dimethylurea] | significantly inhibited | 150.28 ± 11.70 m | 51.49% | – | – | – | –
4 | CN(C)C(=O)N[C@H]1CC[C@H](CCN2CCN(c3ccc4c(Cl)noc4c3)CC2)CC1 [Compound 6, N′-[trans-4-[2-[4-(3-chloro-benzo[d]isoxazol)-6-piperazinyl]ethyl]cyclohexyl]-N,N-dimethylurea] | significantly inhibited | 171.78 ± 13.0 m | 12.27% | – | – | – | –
5 | CN(C)C(=O)N[C@H]1CC[C@H](CCN2CCN(c3noc4cc(F)ccc34)CC2)CC1 [drawing 32] | – | – | – | 1.3 nM | 0.29 nM | 4.12 nM | –
6 | CN(C)C(=O)N[C@H]1CC[C@H](CCN2CCN(c3cccc4sccc34)CC2)CC1 [drawing 31] | – | – | – | > 1000 nM | 0.06 nM | 3.96 nM | –
7 | CN(C)C(=O)N[C@H]1CC[C@H](CCN2CCN(c3ccc4c(Cl)noc4c3)CC2)CC1 [drawing 33] | – | – | – | 251 nM | 0.57 nM | 22.8 nM | –
8 | CN(C)C(=O)N[C@H]1CC[C@H](CCN2CCC(c3noc4cc(F)ccc34)CC2)CC1 [Compound 7, N′-[trans-4-[2-[4-(6-fluoro-benzo[d]isoxazol)-3-piperidyl]ethyl]cyclohexyl]-N,N-dimethylurea] | significantly inhibited | 160.82 ± 12.91 m | 48.09% | – | – | – | –
9 | CN(C)C(=O)N[C@H]1CC[C@H](CCN2CCN(c3cccc4ccsc34)CC2)CC1 [Compound 2, N′-[trans-4-[2-[7-(benzo[b]thiophene)-7-piperazinyl]ethyl]cyclohexyl]-N,N-dimethylurea] | significantly inhibit | 46.95 ± 10.3 m | 84.84% | – | – | – | –
10 | CN(C)C(=O)N[C@H]1CC[C@H](CCN2CCN(c3cccc4cscc34)CC2)CC1 [drawing 30] | – | – | – | 978 nM | 0.07 nM | 3.72 nM | –
11 | CN(C)C(=O)N[C@H]1CC[C@H](CCN2CCN(c3cccc4ccsc34)CC2)CC1 [drawing 35] | – | – | – | – | – | – | LD50 at 6 days [1, 3]: 1100 mg/kg
12 | CN(C)C(=O)N[C@H]1CC[C@H](CCN2CCN(c3noc4cc(F)ccc34)CC2)CC1 [Compound 5, N′-[trans-4-[2-[4-(6-fluoro-benzo[d]isoxazol)-3-piperazinyl]ethyl]cyclohexyl]-N,N-dimethylurea] | significantly inhibit | 5.43 ± 1.7 m | 98.25% | – | – | – | –
13 | CN(C)C(=O)N[C@H]1CC[C@H](CCN2CCN(c3cccc4sccc34)CC2)CC1 [Compound 1, N′-[trans-4-[2-[4-(benzo[b]thiophene)-7-piperazinyl]ethyl]cyclohexyl]-N,N-dimethylurea] | significantly inhibit | 73.09 ± 11.7 m | 76.41% | – | – | – | –
14 | CN(C)C(=O)N[C@H]1CC[C@H](CCN2CCN(c3cccc4cscc34)CC2)CC1 [drawing 36] | – | – | – | – | – | – | LD50 at 6 days [1, 3]: 1050 mg/kg
15 | CN(C)C(=O)N[C@H]1CC[C@H](CCN2CCN(c3cccc4ccsc34)CC2)CC1 [drawing 29] | – | – | – | > 1000 nM | 0.06 nM | 3.85 nM | –
16 | CN(C)C(=O)N[C@H]1CC[C@H](CCN2CCC(c3noc4cc(F)ccc34)CC2)CC1 [drawing 34] | – | – | – | > 1000 nM | 0.15 nM | 3.65 nM | –
17 | CN(C)C(=O)N[C@H]1CC[C@H](CCN2CCN(c3nsc4ccccc34)CC2)CC1 [Compound 4, N′-[trans-4-[2-[4-(benzo[d]isothiazolyl)-3-piperazinyl]ethyl]cyclohexyl]-N,N-dimethylurea] | – | 232.18 ± 20.3 m | 25.05% | – | – | – | –
18 | CN(C)C(=O)N[C@H]1CC[C@H](CCN2CCN(c3cccc4cscc34)CC2)CC1 [Compound 3, N′-[trans-4-[2-[4-(benzo[c]thiophene)-7-piperazinyl]ethyl]cyclohexyl]-N,N-dimethylurea] | significantly inhibit | 63.79 ± 10.8 m | 79.41% | – | – | – | –
